{
  "source": "patent US20240197698A1",
  "about": "“TREATMENT OF ACUTE ANXIETY WITH AN ALPHA-7 NICOTINIC ACETYLCHOLINE RECEPTOR MODULATOR” (Vanda Pharmaceuticals Inc., priority 2022, published 2024)",
  "key": {"[1]": {"test_system": "subjects with substantial public speaking anxiety", "assay_type": "in vivo, human"}, "[2]": {"test_system": "subjects with substantial public speaking anxiety", "assay": "Trier Social Stress Test (TSST) public speaking challenge, randomized double-blind placebo-controlled study: SUDS, CGI-C, PGI-C", "assay_type": "in vivo, human", "set-up": "key to SUDS Mean: SUDS 0–100; 0 = no distress/totally relaxed, 100 = highest anxiety ever felt", "details": "for PGI-C Mean / CGI-C Mean: Post-TSST", "protocol": "A multicenter, randomized, double-blind, placebo-controlled study evaluates the efficacy and safety of VQW-765 in subjects with substantial public speaking anxiety. […] The study design is illustrated in FIG. 1 and Table 2 (below). Visit 1 includes screening for eligibility. At visit 2, subjects are asked for a baseline SUDS rating and then randomized to one of two arms in a 1:1 ratio. […] VQW-765 is provided in the form of capsules that are white, opaque, hard gelatin, size 3, containing 10 mg VQW-765 and lactose monohydrate, microcrystalline cellulose, methocel, croscarmellose sodium, colloidal silicon dioxide, and magnesium stearate. Placebo capsules are provided in size and appearance identical to those containing VQW-765. Two hours later, subjects are instructed to prepare for a 5-minute speech for a mock job interview (resting phase). After 3 minutes of preparation (anticipation phase), the subject delivered the speech in front of an interview panel with two clinical staff (performance phase). SUDS rating was collected at each minute from the resting to performance phase. Eligible subjects are trained to use SUDS, a self-reported rating scale from 0 to 100, used to measure the intensity of anxiety during the TSST. A SUDS rating of “0” equals “no distress/totally relaxed” and 100 equals “highest anxiety/distress that you have ever felt.” In addition, the Liebowitz Social Anxiety Score (LSAS) is administered, and blood samples are collected for pharmacogenetic analysis. LSAS is a clinician-administered rating scale used to assess how social anxiety plays a role in daily life across a variety of situations. The LSAS is used to study outcomes in clinical trials, and includes 24 items to assess both social anxiety in situations and avoidance of those situations. Each item is rated as 0, none; 1, mild; 2, moderate; or 3, severe. The maximal score is 144. After a waiting period of about two (2) hours from administration of study medication, subjects receive a modified Trier Social Stress Test (TSST) involving a public speaking challenge. The subject is instructed to prepare for a 5-minute speech for a job interview, and is asked for a SUDS rating (resting phase). Then the subject has 3 minutes to mentally prepare. A SUDS rating is collected at each minute interval (anticipation phase). Next, the subject gives a 5-minute speech to an audience of two clinical staff members dressed in white coats and previously unknown to the subject. A SUDS rating is collected just before the speech and then at each minute during the speech (performance phase). The speech is video recorded, and the video camera is observed by the subject. […] Physiological biomarkers associated with anxiety or acute stress response, including heart rate, blood pressure, body temperature, and sweating are monitored continuously by medical devices, including an ePatch Extended Holter Device throughout the Public Speaking challenge."}, "[3]": {"assay": "Plasma concentration of VQW-765 after the TSST by LC-MS/MS", "details": "single oral 10 mg; for Mean plasma concentration: female subjects"}},
  "data": [
    {"smiles": "Cc1ccc(-c2ccc(O[C@H]3CN4CCC3CC4)cn2)cc1", "note": "[VQW-765, (R)-3-(6-p-tolyl-pyridin-3-yloxy)-1-aza-bicyclo[2.2.2]octane]", "values": [
      {"measurement": "pattern of HRV change", "setting": "[1]; in vivo", "value": "significant decline"},
      {"measurement": "pattern of HRV increase", "setting": "[1]; performance and recovery phases, FIGS. 6C, 6D", "value": "steady"},
      {"measurement": "SUDS Mean", "setting": "[2]; Female (n = 82), Anticipation phase, P-value 0.0446 vs placebo", "value": 54.80},
      {"measurement": "SUDS Mean", "setting": "[2]; Female (n = 82), Performance phase, P-value 0.0342 vs placebo", "value": 59.55},
      {"measurement": "SUDS Mean", "setting": "[2]; Female (n = 82), Pre-dose phase (baseline), P-value 0.2239 vs placebo", "value": 34.27},
      {"measurement": "SUDS Mean", "setting": "[2]; Female (n = 82), Resting phase, P-value 0.0576 vs placebo", "value": 49.15},
      {"measurement": "SUDS Mean", "setting": "[2]; Female-50% quartile of exposure (n = 38), Anticipation phase, P-value 0.0384 vs placebo", "value": 53.07},
      {"measurement": "SUDS Mean", "setting": "[2]; Female-50% quartile of exposure (n = 38), Performance phase, P-value 0.0046 vs placebo", "value": 54.37},
      {"measurement": "SUDS Mean", "setting": "[2]; Female-50% quartile of exposure (n = 38), Pre-dose phase (baseline), P-value 0.4530 vs placebo", "value": 36.58},
      {"measurement": "SUDS Mean", "setting": "[2]; Female-50% quartile of exposure (n = 38), Resting phase, P-value 0.0577 vs placebo", "value": 47.63},
      {"measurement": "response on SUDS compared to placebo", "setting": "[2]; Females, performance phase, p=0.034", "value": "larger magnitude and significant response"},
      {"measurement": "SUDS Mean", "setting": "[2]; ITT (n = 116), Anticipation phase, single oral 10 mg, P-value 0.0890 vs placebo", "value": 52.96},
      {"measurement": "SUDS Mean", "setting": "[2]; ITT (n = 116), Performance phase, single oral 10 mg, P-value 0.1164 vs placebo", "value": 58.60},
      {"measurement": "PGI-C Mean", "setting": "[2]; ITT (n = 116), scale 1 to 7, P-value 0.3993 vs placebo", "value": 3.4},
      {"measurement": "CGI-C Mean", "setting": "[2]; ITT (n = 116), scale 1 to 7, P-value 0.4038 vs placebo", "value": 3.6},
      {"measurement": "SUDS Mean", "setting": "[2]; ITT (n = 116), Pre-dose phase (baseline), single oral 10 mg, P-value 0.2215 vs placebo", "value": 34.66},
      {"measurement": "SUDS Mean", "setting": "[2]; ITT (n = 116), Resting phase, single oral 10 mg, P-value 0.1423 vs placebo", "value": 47.76},
      {"measurement": "SUDS Mean", "setting": "[2]; ITT-50% quartile of exposure (n = 56), Anticipation phase, P-value 0.0472 vs placebo", "value": 50.89},
      {"measurement": "SUDS Mean", "setting": "[2]; ITT-50% quartile of exposure (n = 56), Performance phase, P-value 0.0332 vs placebo", "value": 55.36},
      {"measurement": "SUDS Mean", "setting": "[2]; ITT-50% quartile of exposure (n = 56), Pre-dose phase (baseline), P-value 0.3845 vs placebo", "value": 35.89},
      {"measurement": "SUDS Mean", "setting": "[2]; ITT-50% quartile of exposure (n = 56), Resting phase, P-value 0.1059 vs placebo", "value": 46.25},
      {"measurement": "SUDS Mean", "setting": "[2]; ITT-LSAS ≥ 60 (n = 97), Anticipation phase, P-value 0.1535 vs placebo", "value": 54.05},
      {"measurement": "SUDS Mean", "setting": "[2]; ITT-LSAS ≥ 60 (n = 97), Performance phase, P-value 0.1664 vs placebo", "value": 59.67},
      {"measurement": "SUDS Mean", "setting": "[2]; ITT-LSAS ≥ 60 (n = 97), Pre-dose phase (baseline), P-value 0.3225 vs placebo", "value": 37.01},
      {"measurement": "SUDS Mean", "setting": "[2]; ITT-LSAS ≥ 60 (n = 97), Resting phase, P-value 0.1509 vs placebo", "value": 49.28},
      {"measurement": "PGI-C, difference to placebo", "setting": "[2]; ITT, p=0.399", "value": "No significant differences"},
      {"measurement": "CGI-C, difference to placebo", "setting": "[2]; ITT, p=0.404", "value": "No significant differences"},
      {"measurement": "intensity of anxiety as measured by the SUDS compared to placebo", "setting": "[2]; ITT, performance phase, p=0.116", "value": "trend of improvement"},
      {"measurement": "performance anxiety compared to placebo", "setting": "[2]; LSAS total score≥60 with efficacious exposures, p=0.014", "value": "significantly reduced"},
      {"measurement": "performance anxiety compared to placebo", "setting": "[2]; females, LSAS total score≥60 with efficacious exposures, p=0.004", "value": "significantly reduced"},
      {"measurement": "SUDS compared to placebo", "setting": "[2]; males with efficacious exposures, FIG. 5C", "value": "do not show improvement"},
      {"measurement": "SUDS rating compared to placebo", "setting": "[2]; males, FIG. 2C", "value": "do not show improvement"},
      {"measurement": "SUDS rating compared to placebo", "setting": "[2]; middle 50% of exposure, second and third quartiles, VQW-M (1.5-8 pmol/ml), p=0.033", "value": "significant improvement"},
      {"measurement": "SUDS Mean", "setting": "[2]; post-hoc, Female-Efficacious exposure (n = 46), Anticipation phase, P-value 0.0116 vs placebo", "value": 51.38},
      {"measurement": "SUDS Mean", "setting": "[2]; post-hoc, Female-Efficacious exposure (n = 46), Performance phase, P-value 0.0029 vs placebo", "value": 54.00},
      {"measurement": "CGI-C Mean", "setting": "[2]; post-hoc, Female-Efficacious exposure (n = 46), P-value 0.2417 vs placebo", "value": 3.4},
      {"measurement": "PGI-C Mean", "setting": "[2]; post-hoc, Female-Efficacious exposure (n = 46), P-value 0.4655 vs placebo", "value": 3.4},
      {"measurement": "SUDS Mean", "setting": "[2]; post-hoc, Female-Efficacious exposure (n = 46), Pre-dose phase (baseline), P-value 0.4267 vs placebo", "value": 36.30},
      {"measurement": "SUDS Mean", "setting": "[2]; post-hoc, Female-Efficacious exposure (n = 46), Resting phase, P-value 0.0282 vs placebo", "value": 46.52},
      {"measurement": "SUDS Mean", "setting": "[2]; post-hoc, ITT-Efficacious exposure (n = 69), Anticipation phase, P-value 0.0165 vs placebo", "value": 49.86},
      {"measurement": "SUDS Mean", "setting": "[2]; post-hoc, ITT-Efficacious exposure (n = 69), Performance phase, P-value 0.0202 vs placebo", "value": 54.96},
      {"measurement": "CGI-C Mean", "setting": "[2]; post-hoc, ITT-Efficacious exposure (n = 69), P-value 0.4343 vs placebo", "value": 3.5},
      {"measurement": "PGI-C Mean", "setting": "[2]; post-hoc, ITT-Efficacious exposure (n = 69), P-value 0.5525 vs placebo", "value": 3.4},
      {"measurement": "SUDS Mean", "setting": "[2]; post-hoc, ITT-Efficacious exposure (n = 69), Pre-dose phase (baseline), P-value 0.3368 vs placebo", "value": 35.51},
      {"measurement": "SUDS Mean", "setting": "[2]; post-hoc, ITT-Efficacious exposure (n = 69), Resting phase, P-value 0.0471 vs placebo", "value": 45.07},
      {"measurement": "anxiety (SUDS) during the TSST compared to placebo", "setting": "[2]; post-hoc, subjects not wearing a face mask (n=5 on VQW-765, n=6 on placebo), FIG. 9", "value": "significantly less anxious"},
      {"measurement": "performance anxiety compared to placebo", "setting": "[2]; post-hoc, subjects with efficacious exposures, p=0.020, FIG. 5A", "value": "significantly alleviated"},
      {"measurement": "CGI-C, difference to placebo", "setting": "[2]; post-hoc, subjects with efficacious exposures, p=0.325", "value": "does not reveal any significant difference"},
      {"measurement": "PGI-C, difference to placebo", "setting": "[2]; post-hoc, subjects with efficacious exposures, p=0.376", "value": "does not reveal any significant difference"},
      {"measurement": "Mean plasma concentration", "setting": "[3]; exposure group PC-1 (n = 7)", "value": 0.25, "unit": "nM"},
      {"measurement": "Mean plasma concentration", "setting": "[3]; exposure group PC-2 (n = 7)", "value": 1.18, "unit": "nM"},
      {"measurement": "Mean plasma concentration", "setting": "[3]; exposure group PC-3 (n = 8)", "value": 1.58, "unit": "nM"},
      {"measurement": "Mean plasma concentration", "setting": "[3]; exposure group PC-4 (n = 8)", "value": 2.06, "unit": "nM"},
      {"measurement": "Mean plasma concentration", "setting": "[3]; exposure group PC-5 (n = 8)", "value": 2.9, "unit": "nM"},
      {"measurement": "Mean plasma concentration", "setting": "[3]; exposure group PC-6 (n = 8)", "value": 3.82, "unit": "nM"},
      {"measurement": "Mean plasma concentration", "setting": "[3]; exposure group PC-7 (n = 8)", "value": 5.1, "unit": "nM"},
      {"measurement": "Mean plasma concentration", "setting": "[3]; exposure group PC-8 (n = 8)", "value": 7.04, "unit": "nM"},
      {"measurement": "Mean plasma concentration", "setting": "[3]; exposure group PC-9 (n = 8)", "value": 9.79, "unit": "nM"},
      {"measurement": "Mean plasma concentration", "setting": "[3]; exposure group PC-10 (n = 7)", "value": 13.39, "unit": "nM"},
      {"measurement": "plasma concentrations in the middle 50%, second and third quartiles", "setting": "[3]", "value": "1.57 to 6.32", "unit": "nM"}
    ]}
  ]
}
